The target in series [1] is T1, Serine/threonine-protein kinase Chk1 (Homo sapiens, UniProt O14757).
T1 sequence (O14757 whole entry): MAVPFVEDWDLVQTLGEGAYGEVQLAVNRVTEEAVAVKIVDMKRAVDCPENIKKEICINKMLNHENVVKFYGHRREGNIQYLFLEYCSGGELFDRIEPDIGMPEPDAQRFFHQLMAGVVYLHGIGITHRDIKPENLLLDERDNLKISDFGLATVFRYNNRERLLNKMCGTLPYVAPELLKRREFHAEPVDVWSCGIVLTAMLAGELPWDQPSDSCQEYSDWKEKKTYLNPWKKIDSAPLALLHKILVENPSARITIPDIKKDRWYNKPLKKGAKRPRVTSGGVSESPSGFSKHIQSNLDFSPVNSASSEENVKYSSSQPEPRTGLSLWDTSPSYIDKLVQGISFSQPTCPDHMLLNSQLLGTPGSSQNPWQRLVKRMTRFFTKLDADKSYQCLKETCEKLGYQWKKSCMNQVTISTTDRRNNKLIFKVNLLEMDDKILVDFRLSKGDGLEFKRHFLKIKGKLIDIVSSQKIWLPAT
The experiment in a line: Inhibition of human CHEK1.

A short description of series [2]: Clearance in dog at 0.25 mg/kg, iv. Particulars: in vivo. The class given is ADME, organism-based, Canis lupus familiaris. Also on record: dose 0.25 mg/kg, route intravenous.
Series [3] is described as follows: Half life in dog at 0.25 mg/kg, iv. The class given is ADME, organism-based, Canis lupus familiaris. Also noted: dose 0.25 mg/kg, route intravenous. Conditions: in vivo.
Series [4] is described as follows: Partition coefficient, log P of the compound. The class given is physicochemical. Particulars: octanol/water.

Usually IC50 stands for the concentration that gives 50% inhibition. Low readings indicate higher potency, high ones lower potency. Usually clearance stands for the volume of plasma or blood freed of the substance per unit of time. A high value points to efficient removal. As usually defined, the half-life is the time needed for the level to fall by half in the phase considered. A high value points to slow decline. A word on the logP: it is the decadic logarithm of the partition coefficient of the neutral form, usually between octanol and water. Read a high logP as a more lipophilic compound.

Structures are written as SMILES.

`O=c1[nH]c2ccc(-n3ccnc3)cc2cc1-c1cc2cc(CN3CCCCC3)ccc2[nH]1` showed an IC50 in series [1] of 4.3 nM.
Same read-out and setting: in the case of `NCC1CCN(Cc2ccc3[nH]c(-c4cc5cc(C(N)=O)ccc5[nH]c4=O)cc3c2)CC1` it was 0.7 nM.
`O=c1[nH]c2ccc(-c3cn[nH]c3)cc2cc1-c1cc2cc(CN3CCOCC3)ccc2[nH]1` registered a clearance in series [2] of 34 mL/min/kg. Also, in series [3], the half-life was 2 h. In addition, the IC50 in series [1] was found to be 0.83 nM.
As for `CC(=O)N1CCN(Cc2ccc3[nH]c(-c4cc5cc(-c6cn[nH]c6)ccc5[nH]c4=O)cc3c2)CC1`, in series [2], the clearance amounted to 27 mL/min/kg. The compound also showed a half-life in series [3] of 1.5 h. This compound returned an IC50 in series [1] of 2.5 nM.
In turn, `O=c1[nH]c2ccc(-c3cccc(O)c3)cc2cc1-c1cc2cc(CN3CCCCC3)ccc2[nH]1` gave an IC50 in series [1] of 29 nM.
The same measure, in the same setting: in the case of `COc1cc(-c2ccc3[nH]c(=O)c(-c4cc5cc(CN6CCCCC6)ccc5[nH]4)cc3c2)ccc1O` it was 20 nM; in that of `N#Cc1ccc2cc(-c3cc4cc(CN5CCC(CN)CC5)ccc4[nH]3)c(=O)[nH]c2c1`, 190 nM.
Regarding `O=c1[nH]c2ccc(-c3cn[nH]c3)cc2cc1-c1cc2cc(CN3CCC(F)CC3)ccc2[nH]1`, the clearance in series [2] is 22 mL/min/kg. Further, the half-life in series [3] is 2.5 h. In series [1], this compound returned an IC50 of 1 nM.
Compound `CC(=O)N1CCN(Cc2ccc3[nH]c(-c4cc5cc(-c6cnn(C)c6)ccc5[nH]c4=O)cc3c2)CC1` registered a clearance in series [2] of 6.5 mL/min/kg. The compound also had a half-life in series [3] of 4.1 h. This compound also returned an IC50 in series [1] of 3 nM.
Turning to `O=c1[nH]c2ccc(-n3ccnn3)cc2cc1-c1cc2cc(CN3CCCCC3)ccc2[nH]1`, the IC50 in series [1] was found to be 0.74 nM.
The same measure, in the same setting: in the case of `NC(=O)c1ccc2[nH]c(=O)c(-c3cc4cc(CN5CCCCC5)ccc4[nH]3)cc2c1` it was 0.34 nM.
`O=c1[nH]c2ccc(-c3cc[nH]n3)cc2cc1-c1cc2cc(CN3CCCCC3)ccc2[nH]1`: the half-inhibitory concentration (IC50) in series [1] was determined as 5.6 nM.
Still for that read-out and setting: in the case of `O=c1[nH]c2ccc(-c3cnsc3)cc2cc1-c1cc2cc(CN3CCCCC3)ccc2[nH]1` it was 0.64 nM; in that of `Cn1nnc(-c2ccc3[nH]c(=O)c(-c4cc5cc(CN6CCCCC6)ccc5[nH]4)cc3c2)n1`, 6.4 nM.
As to `O=c1[nH]c2ccccc2cc1-c1cc2ccccc2[nH]1`, the IC50 in series [1] stood at 1000 nM.
Same read-out and setting: in the case of `N#Cc1cccc2[nH]c(=O)c(-c3cc4cc(CN5CCC(CN)CC5)ccc4[nH]3)cc12` it was 580 nM; in that of `N#Cc1ccc2[nH]c(=O)c(-c3cc4cc(CN5CCC(CN)CC5)ccc4[nH]3)cc2c1`, 4 nM.
As to `O=c1[nH]c2ccc(Br)cc2cc1-c1cc2cc(CN3CCCCC3)ccc2[nH]1`, inhibition in series [1] was half-maximal at 2.9 nM (IC50).
On the same count and under the same terms, in the case of `Cn1cc(-c2ccc3[nH]c(=O)c(-c4cc5cc(CN6CCCCC6)ccc5[nH]4)cc3c2)cn1` it was 1.1 nM; in that of `O=c1[nH]c2ccc(-n3nccn3)cc2cc1-c1cc2cc(CN3CCCCC3)ccc2[nH]1`, 14 nM.
Consider `COCC(=O)N1CCN(Cc2ccc3[nH]c(-c4cc5cc(-c6cn[nH]c6)ccc5[nH]c4=O)cc3c2)CC1`, for which, in series [2], the clearance amounted to 23 mL/min/kg. The same compound gave a half-life in series [3] of 2 h. The IC50 in series [1] was 2.1 nM.
Regarding `O=c1[nH]c2ccc(-c3cn[nH]c3)cc2cc1-c1cc2cc(CN3CCCCC3)ccc2[nH]1`, the clearance in series [2] was 30 mL/min/kg. In addition, the half-life in series [3] was 4.4 h. This compound also displayed a logP in series [4] of 2.81.
`N#Cc1ccc2[nH]c(=O)c(-c3cc4cc(CN5CCCCC5)ccc4[nH]3)cc2c1`: it took 4.6 nM to reach half-maximal inhibition in series [1] (IC50).

(Values after ChEMBL document CHEMBL1145296, “Development of 6-substituted indolylquinolinones as potent Chek1 kinase inhibitors” (Bioorg Med Chem Lett, 2006).)
